Structures are written as SMILES.

Experiment [1] deals with T1, panel of 442 kinases (Homo sapiens, UniProt O14733).
T1 construct: purchased KINOMEscan
T1 sequence (O14733 1-419): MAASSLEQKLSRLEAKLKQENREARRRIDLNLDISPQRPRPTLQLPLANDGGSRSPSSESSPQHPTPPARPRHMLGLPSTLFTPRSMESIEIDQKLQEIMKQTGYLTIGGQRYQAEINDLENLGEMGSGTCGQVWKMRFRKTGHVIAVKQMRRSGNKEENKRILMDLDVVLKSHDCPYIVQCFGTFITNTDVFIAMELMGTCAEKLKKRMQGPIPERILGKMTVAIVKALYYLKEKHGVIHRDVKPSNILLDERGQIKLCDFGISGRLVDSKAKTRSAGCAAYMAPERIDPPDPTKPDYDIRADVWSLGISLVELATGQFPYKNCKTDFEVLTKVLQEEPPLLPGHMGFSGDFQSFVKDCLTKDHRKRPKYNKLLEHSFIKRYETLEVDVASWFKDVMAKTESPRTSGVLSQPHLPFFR
The experiment is classed as binding. To be noted: Compound Concentration 10 µM. From the text:
(§1) We assessed the selectivity of members of this scaffold using the KINOMEscan methodology across a near comprehensive panel of 442 kinases [[18,27]].

Experiment [2] deals with T2, panel of 442 kinases (Homo sapiens, UniProt Q8N5S9).
T2 construct: purchased KINOMEscan
It counts as binding. Conditions: Compound Concentration 10 µM.
From the text: as §1

T2 sequence (Q8N5S9 whole entry): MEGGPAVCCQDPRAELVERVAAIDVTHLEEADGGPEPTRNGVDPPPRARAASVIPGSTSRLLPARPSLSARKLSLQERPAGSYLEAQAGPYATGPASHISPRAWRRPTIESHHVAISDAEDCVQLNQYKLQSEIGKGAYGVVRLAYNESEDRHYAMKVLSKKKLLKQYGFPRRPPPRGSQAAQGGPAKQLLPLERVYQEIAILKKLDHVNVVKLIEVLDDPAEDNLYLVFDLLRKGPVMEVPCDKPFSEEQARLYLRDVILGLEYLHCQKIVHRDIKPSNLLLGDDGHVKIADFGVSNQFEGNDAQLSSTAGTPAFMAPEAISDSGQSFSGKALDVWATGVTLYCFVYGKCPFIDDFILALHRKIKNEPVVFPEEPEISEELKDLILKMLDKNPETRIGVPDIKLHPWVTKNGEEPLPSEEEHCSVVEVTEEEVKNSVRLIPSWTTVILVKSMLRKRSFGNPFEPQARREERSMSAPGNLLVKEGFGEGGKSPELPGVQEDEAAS

For `CCOc1cc(C(=O)N2CCC(N3CCN(C)CC3)CC2)ccc1Nc1ncc2c(n1)N(C1CCCC1)c1ccccc1C(=O)N2C` [Compound 26], the “KINOMEscan: MKK7” value at panel of 442 kinases [1] turned out to be 88. In addition, at panel of 442 kinases [2], the “KINOMEscan: CAMKK1” value is 100.
For `COc1cc(C(=O)N2CCC(N3CCN(C)CC3)CC2)ccc1Nc1ncc2c(n1)N(C)c1ccccc1C(=O)N2C` [15 (LRRK2-IN-1)], in that order: 100 and 73.
In the same order, the values of `COc1cc(C(=O)N2CCC(N3CCN(C)CC3)CC2)ccc1Nc1ncc2c(n1)N(C1CCCC1)c1ccccc1C(=O)N2C` [Compound 25, 11-cyclopentyl-2-((2-methoxy-4-(4-(4-methylpiperazin-1-yl)piperidine-1-carbonyl)phenyl)amino)-5-methyl-5H-benzo[e]pyrimido[5,4-b][1,4]diazepin-6(11H)-one] are 100 and 99.

For the origin of these results see article PMC3914206.
